Values quoted from earlier work in US20250099385A1, “Extended Release Boswellic Acid and Manufacturing Thereof” (Lonza Greenwood LLC, priority 2022, published 2025).
Entries after “also recorded” stand apart in the source; their conditions may differ.

Legend:
5-lipoxygenase = molecular target: T1, 5-lipoxygenase (Homo sapiens, UniProt P09917)
T1 sequence (P09917 1-674): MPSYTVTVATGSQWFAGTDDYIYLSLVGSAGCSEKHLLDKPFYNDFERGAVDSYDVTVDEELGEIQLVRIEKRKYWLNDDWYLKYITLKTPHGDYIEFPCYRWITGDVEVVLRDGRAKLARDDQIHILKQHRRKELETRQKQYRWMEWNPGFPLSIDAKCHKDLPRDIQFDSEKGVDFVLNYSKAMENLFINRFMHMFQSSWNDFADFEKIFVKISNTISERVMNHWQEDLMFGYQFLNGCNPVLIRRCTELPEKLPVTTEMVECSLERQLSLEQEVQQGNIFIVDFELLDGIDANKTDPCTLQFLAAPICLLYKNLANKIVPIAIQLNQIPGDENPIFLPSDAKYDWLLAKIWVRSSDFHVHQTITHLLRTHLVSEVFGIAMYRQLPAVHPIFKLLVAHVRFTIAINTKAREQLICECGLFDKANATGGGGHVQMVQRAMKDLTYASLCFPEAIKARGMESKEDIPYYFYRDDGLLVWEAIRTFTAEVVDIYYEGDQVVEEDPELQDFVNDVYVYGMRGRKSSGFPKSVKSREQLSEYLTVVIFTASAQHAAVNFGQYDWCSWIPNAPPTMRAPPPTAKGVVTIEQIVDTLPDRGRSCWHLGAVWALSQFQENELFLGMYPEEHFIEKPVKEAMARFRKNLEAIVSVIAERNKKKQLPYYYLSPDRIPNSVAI

[1] = not given; remark: listed apart in the source

3-O-acetyl-11-keto-.beta.-boswellic acid [AKBA]
time at which AKBA levels in the blood peak (after oral consumption): ~3 h
AKBA levels in the blood beyond 10 hours (beyond 10 hours from oral consumption): nearly zero concentration; also recorded: almost zero concentrations
bioavailability (in vivo): poorly bioavailable
5-lipoxygenase inhibition, rank among the boswellic acids (5-lipoxygenase): most potent inhibitor
water solubility [1]: highly water-insoluble
